The values that follow come from patent US20080269213A1, “8-Hydroxyquinoline compounds and methods thereof” (Wyeth, priority 2006, published 2008).

For one experiment, the target named is T1, Agg-1 (Homo sapiens, UniProt O75173).
T1 sequence (O75173 213-837): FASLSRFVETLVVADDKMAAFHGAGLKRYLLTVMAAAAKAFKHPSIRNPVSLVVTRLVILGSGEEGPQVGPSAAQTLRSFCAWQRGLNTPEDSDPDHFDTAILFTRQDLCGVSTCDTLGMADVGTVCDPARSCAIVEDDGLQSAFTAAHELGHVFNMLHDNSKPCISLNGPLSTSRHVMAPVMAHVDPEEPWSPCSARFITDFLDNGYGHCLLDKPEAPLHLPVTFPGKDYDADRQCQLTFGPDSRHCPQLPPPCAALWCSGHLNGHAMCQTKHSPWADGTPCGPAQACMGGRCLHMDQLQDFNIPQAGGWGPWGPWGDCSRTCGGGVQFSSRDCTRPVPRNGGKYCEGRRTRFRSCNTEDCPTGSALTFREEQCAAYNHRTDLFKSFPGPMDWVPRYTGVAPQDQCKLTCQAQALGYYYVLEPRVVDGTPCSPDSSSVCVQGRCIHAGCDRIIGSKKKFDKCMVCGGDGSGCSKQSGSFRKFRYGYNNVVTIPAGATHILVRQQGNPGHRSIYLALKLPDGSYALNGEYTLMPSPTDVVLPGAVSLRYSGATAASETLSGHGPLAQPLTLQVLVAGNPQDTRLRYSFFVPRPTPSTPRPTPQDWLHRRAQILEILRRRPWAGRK
As to the kind of experiment: Agg-1 FRET assay. In kind it is biochemical. The following applies: for inhibition at 67 µM: @ 67000 nM; for inhibition at 22.2 µM: @ 22200 nM; for inhibition at 7.4 µM: @ 7400 nM. An excerpt: The Agg-1/Agg-2 FRET data for N-[(8-hydroxyquinolin-2-yl)(phenyl)methyl]-2-phenoxyacetamide and 2-{[(phenoxyacetyl)amino](phenyl)methyl}quinolin-8-yl phenoxyacetate is presented in Table 1.

Experiment [1] deals with T2, recombinant human Aggrecanase-2 Agg2-Phe628 (Homo sapiens, UniProt Q9UNA0).
T2 sequence (Q9UNA0 262-628 limits assumed): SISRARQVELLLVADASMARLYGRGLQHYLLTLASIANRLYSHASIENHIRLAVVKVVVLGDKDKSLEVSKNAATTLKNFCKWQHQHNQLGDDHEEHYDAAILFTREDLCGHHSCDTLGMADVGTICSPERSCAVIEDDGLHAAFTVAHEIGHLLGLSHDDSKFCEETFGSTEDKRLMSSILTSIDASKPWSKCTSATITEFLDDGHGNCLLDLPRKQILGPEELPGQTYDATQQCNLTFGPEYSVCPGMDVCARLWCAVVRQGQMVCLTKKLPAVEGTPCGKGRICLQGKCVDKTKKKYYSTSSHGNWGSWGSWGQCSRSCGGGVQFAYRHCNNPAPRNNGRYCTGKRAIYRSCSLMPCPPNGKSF
As to the kind of experiment: Aggrecanase 2 in vitro enzyme assay (Agg-2 FRET, quenched fluorescent peptide substrate). Type of experiment: biochemical. On the set-up: purified recombinant human Aggrecanase-2 Agg2-Phe628 (MW=41,737); This is a truncated form of full-length human aggrecanase-2; made in house; host or cells: CHO cells. The following applies: for Agg-2 FRET Median PCT INHIB: concentration not given. Summed up:
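Continuous FRET assay with purified truncated human Aggrecanase-2 Agg2-Phe628 (CHO-expressed, 0.5 μg/ml final) and brevican-derived Abz/Dnp peptide (25 μM final) in 50 mM HEPES pH 7.5, 100 mM NaCl, 5 mM CaCl2, 0.1% CHAPS, 5% glycerol. Enzyme preincubated with compound before substrate; fluorescence (ex 340/em 420 nm) followed kinetically 40 min at 30 °C.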

[2] abbreviates: read-out: Agg-2 FRET Median IC50.

Where “and” joins values, the source holds several entries; their conditions need not be identical. Equal values may be shown once. Read-outs that look alike come from different tables or passages of the source.

`O=C(COc1ccccc1)NC(c1ccco1)c1cc(Cl)c2cccnc2c1O` (stereo not shown) [N-[(5-chloro-8-hydroxyquinolin-7-yl)(2-furyl)methyl]-2-phenoxyacetamide]: on Agg-1 (read-out: Agg1 %), the inhibition at 67 µM worked out at 51%. The IC50 in experiment [1] (read-out: Agg2 IC50) was 2.43 µM; in experiment [1] (setting [2]) it was 3.9 µM and 2.43 µM.

Regarding `Cc1ccc(-c2cccc(C(Cc3cc(Cl)c4cccnc4c3O)NC(=O)COc3ccccc3)c2)s1` (stereo not shown), the inhibition at 66.7 µM on Agg-1 (% inhibition @ 66.7 μM, read-out: Agg-1 IC50 (μM) or % Inhibition) stood at 42%. The inhibition at 22 µM in experiment [1] (read-out: Agg-2 IC50 (μM) or % Inhibition) was 58%.

As for `CCN(CC)c1ccc(C(NC(=O)COc2ccccc2)c2cc(Cl)c3cccnc3c2O)cc1` (stereo not shown) [Example 135, N-{(5-chloro-8-hydroxyquinolin-7-yl)[4-(diethylamino)phenyl]methyl}-2-phenoxyacetamide], the figures for the half-maximal inhibitory concentration (IC50) (at Agg-1 (read-out: Agg1 IC50); in experiment [1] (read-out: Agg2 IC50)) were 22 to 67 µM and 2.8 µM, respectively.

On to `O=C(COc1ccccc1)NC(c1ccccc1)c1cc(N2CCCC2)c2cccnc2c1O` (stereo not shown) [N-[(8-hydroxy-5-pyrrolidin-1-ylquinolin-7-yl)(phenyl)methyl]-2-phenoxyacetamide], for which the inhibition at 22.2 µM at Agg-1 (read-out: Agg1 %) worked out at 49%. In addition, the IC50 in experiment [1] (read-out: Agg2 IC50) and in experiment [1] (setting [2]) was 10.5 µM in each case.

`O=C(NC(c1ccc2c(c1)OCO2)c1cc(Cl)c2cccnc2c1O)OCc1ccccc1` (stereo not shown) [benzyl [1,3-benzodioxol-5-yl(5-chloro-8-hydroxyquinolin-7-yl)methyl]carbamate]: the results for the IC50 (at Agg-1 (read-out: Agg1 IC50); in experiment [1] (read-out: Agg2 IC50); in experiment [1] (setting [2])) were greater than 3 µM, 1.56 µM and 1.56 µM, respectively.

As to `Nc1cc(C(NC(=O)COc2ccccc2)c2ccccc2)c(O)c2ncccc12` (stereo not shown) [N-[(5-amino-8-hydroxyquinolin-7-yl)(phenyl)methyl]-2-phenoxyacetamide], the inhibition at 22.2 µM at Agg-1 (read-out: Agg1 %) came to 57%; in experiment [1] (@ 22200 nM), 50%.

For `C=CC(NC(=O)COc1ccccc1)c1cc(Cl)c2cccnc2c1O` (stereo not shown) [Example 186, N-[1-(5-chloro-8-hydroxyquinolin-7-yl)prop-2-en-1-yl]-2-phenoxyacetamide], the inhibition at 0.8 µM on Agg-1 (@ 800 nM, read-out: Agg1 %) stood at 50%. Further, the inhibition at 3.7 µM in experiment [1] (@ 3700 nM) was found to be 38%.

Consider `CCCCCc1ccc(OCC(=O)NC(c2ccccc2Cl)c2cc(Cl)c3cccnc3c2O)cc1` (stereo not shown) [N-[(5-chloro-8-hydroxyquinolin-7-yl)(2-chlorophenyl)methyl]-2-(4-pentylphenoxy)acetamide], for which the inhibition at 33 µM on Agg-1 (@ 33000 nM, read-out: Agg1 %) amounted to 44%. The inhibition at 22 µM in experiment [1] (@ 22000 nM, read-out: Agg2 %) amounted to 50%.

Regarding `Cn1c(C(NC(=O)COc2ccccc2)c2cc(Cl)c3cccnc3c2O)cc2ccccc21` (stereo not shown) [N-[(5-chloro-8-hydroxyquinolin-7-yl)(1-methyl-1H-indol-2-yl)methyl]-2-phenoxyacetamide], the inhibition at 11 µM at Agg-1 (@ 11000 nM, read-out: Agg1 %) came out at 48%. Further, in experiment [1] (@ 2500 nM), the inhibition at […] worked out at 57%.

Regarding `O=C(COc1ccccc1)NC(c1ccc(C#Cc2ccccc2)cc1)c1cc(Cl)c2cccnc2c1O` (stereo not shown) [Example 141, N-{(5-chloro-8-hydroxyquinolin-7-yl)[4-(phenylethynyl)phenyl]methyl}-2-phenoxyacetamide], the inhibition at 7.4 µM on Agg-1 (read-out: Agg1 %) is 48%. In experiment [1] (@ 1200 nM), the inhibition at […] was 58%. Also, in experiment [1], the “Agg-2 FRET Median PCT INHIB” value turned out to be 50%.

With `Cc1ccc2occ(C(NC(=O)COc3ccccc3)c3cc(Cl)c4cccnc4c3O)c(=O)c2c1` (stereo not shown) [N-[(5-chloro-8-hydroxyquinolin-7-yl)(6-methyl-4-oxo-4H-chromen-3-yl)methyl]-2-phenoxyacetamide], the inhibition at 7.4 µM on Agg-1 (read-out: Agg1 %) worked out at 43%. Besides, the IC50 in experiment [1] (read-out: Agg2 IC50) worked out at 1.2 µM.

For `CS(=O)(=O)Nc1cccc(C(NC(=O)COc2ccccc2)c2cc(Cl)c3cccnc3c2OS(C)(=O)=O)c1` (stereo not shown) [Example 203, 5-chloro-7-{{3-[(methylsulfonyl)amino]phenyl}[(phenoxyacetyl)amino]methyl}quinolin-8-yl methanesulfonate], the IC50 on Agg-1 (read-out: Agg1 IC50) was greater than 20 µM; in experiment [1] (read-out: Agg2 IC50) it was greater than 30 µM. Further, the “Agg-2 FRET Median PCT INHIB” value in experiment [1] is on record as 20%.

For the compound `O=C(COc1ccccc1)NC(c1ccc(F)cc1)c1cc(Cl)c2cccnc2c1O` (stereo not shown) [N-[(5-chloro-8-hydroxyquinolin-7-yl)(4-fluorophenyl)methyl]-2-phenoxyacetamide], the inhibition at 67 µM on Agg-1 (read-out: Agg1 %) stood at 48%. The IC50 in experiment [1] (read-out: Agg2 IC50) was found to be 1.2 µM.

Regarding `O=C(COc1ccccc1)NC(c1ccc2c(c1)OCO2)c1cc(Cl)c2cccnc2c1O` (stereo not shown) [N-[1,3-benzodioxol-5-yl(5-chloro-8-hydroxyquinolin-7-yl)methyl]-2-phenoxyacetamide], the figures for the IC50 (on Agg-1 (read-out: Agg1 IC50); in experiment [1] (read-out: Agg2 IC50); in experiment [1] (setting [2])) were greater than 22 µM, 1.56 µM and 1.56 µM, respectively.

`O=C(COc1ccc2c(c1)OCO2)NC(c1ccccc1Cl)c1cc(Cl)c2cccnc2c1O` (stereo not shown) [Example 221, 2-(1,3-benzodioxol-5-yloxy)-N-[(5-chloro-8-hydroxyquinolin-7-yl)(2-chlorophenyl)methyl]acetamide]: the IC50 was 7.4 to 20 µM on Agg-1 (read-out: Agg1 IC50) and 1 µM in experiment [1] (read-out: Agg2 IC50).

On to `O=C(COc1ccccc1)NC(c1ccc(OCc2ccccc2)cc1)c1cc(Cl)c2cccnc2c1O` (stereo not shown) [N-[[4-(benzyloxy)phenyl](5-chloro-8-hydroxyquinolin-7-yl)methyl]-2-phenoxyacetamide], for which the figures for the IC50 (at Agg-1 (read-out: Agg1 IC50); in experiment [1] (read-out: Agg2 IC50)) were greater than 67 µM and 4.4 µM, respectively.

Regarding `O=C(COc1ccccc1)NC(c1ccc(-c2ccccc2)cc1)c1cc(Cl)c2cccnc2c1O` (stereo not shown) [N-[biphenyl-4-yl(5-chloro-8-hydroxyquinolin-7-yl)methyl]-2-phenoxyacetamide], the IC50 is greater than 200 µM on Agg-1 (read-out: Agg1 IC50) and 5.4 µM in experiment [1] (read-out: Agg2 IC50).

On to `CCCCN(CCCC)c1ccc(C(NC(=O)COc2ccccc2)c2cc(Cl)c3cccnc3c2O)cc1` (stereo not shown) [Example 136, N-{(5-chloro-8-hydroxyquinolin-7-yl)[4-(dibutylamino)phenyl]methyl}-2-phenoxyacetamide], for which the inhibition at 66.7 µM on Agg-1 (@ 66700 nM, read-out: Agg1 %) is 40%. The inhibition at 33.3 µM in experiment [1] (@ 33300 nM) was 52%.

For the compound `O=C(COc1ccccc1)NC(c1ccccc1)c1cc(Br)c2cccnc2c1O` (stereo not shown) [N-[(5-bromo-8-hydroxyquinolin-7-yl)(phenyl)methyl]-2-phenoxyacetamide], the inhibition at 22.2 µM on Agg-1 (read-out: Agg1 %) worked out at 64%. Besides, the IC50 in experiment [1] (read-out: Agg2 IC50) and in experiment [1] (setting [2]) was 2.48 µM each time.

`O=C(COc1ccccc1)NC(c1ccccc1)c1ccc2cccc(OC(=O)COc3ccccc3)c2n1` (stereo not shown) [Example 277, 2-{[(phenoxyacetyl)amino](phenyl)methyl}quinolin-8-yl phenoxyacetate]: the IC50 on Agg-1 (read-out: FRET IC50 Agg-1) is 4 µM. In experiment [1] (@ 200 (μM), read-out: Agg-2 FRET % (printed in FRET IC50 column)), the inhibition at 200 µM turned out to be 52%.

`O=C(CNCc1cccnc1)NC(c1ccccc1)c1cc(Cl)c2cccnc2c1O` (stereo not shown) [Example 228, N-[(5-chloro-8-hydroxyquinolin-7-yl)(phenyl)methyl]-N2-(pyridin-3-ylmethyl)glycinamide]: the IC50 on Agg-1 (read-out: Agg1 IC50) is greater than 67 µM; in experiment [1] (read-out: Agg2 IC50), greater than 11 µM. Besides, the “Agg-2 FRET Median PCT INHIB” value in experiment [1] is listed as 32%.

With `O=C(COc1ccccc1)NC(c1cn2c(n1)COCC2)c1cc(Cl)c2cccnc2c1O` (stereo not shown) [Example 178, N-[(5-chloro-8-hydroxyquinolin-7-yl)(5,6-dihydro-8H-imidazo[2,1-c][1,4]oxazin-2-yl)methyl]-2-phenoxyacetamide], the half-inhibitory concentration (IC50) on Agg-1 (read-out: Agg1 IC50) is greater than 20 µM; in experiment [1] (read-out: Agg2 IC50), 6.2 µM.
